Reference: patent US20260200911A1, “NOVEL COMPOUNDS” (Neurosterix Pharma Sarl., priority 2022, published 2026)

Target: T1, human mGlu7 (Homo sapiens, UniProt Q14831)
T1 construct: expressed in transfected cells
Test: Fluorescent cell based Ca2+ mobilization assay (FLIPR) on HEK-293 cells expressing human mGlu7
Conditions: HEK-293 cells expressing hmGlu7; inhibition of EC80 L-AP4 response; mean of at least three independent experiments in duplicate; read-out: Ca^2+ Flux (mean IC50)
Text: mGlu7 Assay on HEK-Expressing Human mGlu7
The cDNA encoding the human metabotropic glutamate 7 receptor (hmGlu7), (accession number NM_181874.2, NCBI Nucleotide database browser), was subcloned into an expression vector containing also the hygromycin resistance gene. In parallel, the cDNA encoding a G protein allowing redirection of the activation signal to intracellular calcium flux was subcloned into a different expression vector containing also the Puromycin resistance gene. Transfection of both these vectors into HEK293 cells with PolyFect reagent (Qiagen) according to supplier's protocol, and hygromycin and puromycin treatment allowed selection of antibiotic resistant cells which had integrated stably one or more copies of the plasmids. Positive cellular clones expressing hmGlu7 were identified in a functional assay measuring changes in calcium fluxes in response to glutamate and L-AP4 or known mGlu7 orthosteric antagonists.
HEK-293 cells expressing hmGlu7 were maintained in media containing DMEM, Fetal Bovine Serum (10%), Glutamax™ (2 mM), penicillin (100 units/mL), streptomycin (100 μg/mL), geneticin (100 μg/mL) and hygromycin-B (40 μg/mL) and puromycin (1 μg/mL) at 37° C. with 5% CO2 in a humidified atmosphere.
Human mGlu7 HEK-293 cells were plated out 24 hours prior to a fluorescent cell-based calcium mobilization assay using FLIPR^384 assay (Molecular Device, Sunnyvale, CA, USA) in black-walled, clear-bottomed, poly-L-ornithine-coated 384-well plates at a density of 25,000 cells/well in a glutamine/glutamate free DMEM medium containing fetal bovine serum (10%), penicillin (100 units/mL), streptomycin (100 μg/mL) and doxycyline (1 μg/ml) at 37° C. with 5% CO2 in a humidified atmosphere.
On the day of the assay, the medium was aspirated and the cells were loaded with a 3 μM solution of Fluo4-AM (LuBioScience, Lucerne, Switzerland) in 0.03% pluronic acid. After 1 hour at 37° C./5% CO2, the non incorporated dye was removed by washing cell plate with the assay buffer. All assays were performed in a pH 7.4 buffered-solution containing 20 mM HEPES, 143 mM NaCl, 6 mM KCl, 1 mM MgSO4, 1 mM CaCl2, 0.125 mM sulfinpyrazone and 0.1% glucose.
After 10 s of basal fluorescence recording, various concentrations of the compounds of the invention were added to the cells. Changes in fluorescence levels were first monitored for 180 s in order to detect any agonist activity of the compounds. Then the cells were stimulated by an EC80 L-AP4 concentration for an additional 110 s in order to measure inhibiting activities of the compounds of the invention. EC80 L-AP4 concentration is the concentration giving 80% of the maximal glutamate response.
The concentration-response curves of L-AP4 or representative compounds of the present invention were generated using the Prism GraphPad software (Graph Pad Inc, San Diego, USA). The curves were fitted to a four-parameter logistic equation:
(Y=Bottom+(Top−Bottom)/(1+10^((Log IC50−X)*Hill Slope)
allowing determination of IC50 values.
The Table 3 below represents the mean IC50 obtained from at least three independent experiments of selected molecules performed in duplicate.

T1 sequence (Q14831 35-922 isoform Q14831-2 limits assumed): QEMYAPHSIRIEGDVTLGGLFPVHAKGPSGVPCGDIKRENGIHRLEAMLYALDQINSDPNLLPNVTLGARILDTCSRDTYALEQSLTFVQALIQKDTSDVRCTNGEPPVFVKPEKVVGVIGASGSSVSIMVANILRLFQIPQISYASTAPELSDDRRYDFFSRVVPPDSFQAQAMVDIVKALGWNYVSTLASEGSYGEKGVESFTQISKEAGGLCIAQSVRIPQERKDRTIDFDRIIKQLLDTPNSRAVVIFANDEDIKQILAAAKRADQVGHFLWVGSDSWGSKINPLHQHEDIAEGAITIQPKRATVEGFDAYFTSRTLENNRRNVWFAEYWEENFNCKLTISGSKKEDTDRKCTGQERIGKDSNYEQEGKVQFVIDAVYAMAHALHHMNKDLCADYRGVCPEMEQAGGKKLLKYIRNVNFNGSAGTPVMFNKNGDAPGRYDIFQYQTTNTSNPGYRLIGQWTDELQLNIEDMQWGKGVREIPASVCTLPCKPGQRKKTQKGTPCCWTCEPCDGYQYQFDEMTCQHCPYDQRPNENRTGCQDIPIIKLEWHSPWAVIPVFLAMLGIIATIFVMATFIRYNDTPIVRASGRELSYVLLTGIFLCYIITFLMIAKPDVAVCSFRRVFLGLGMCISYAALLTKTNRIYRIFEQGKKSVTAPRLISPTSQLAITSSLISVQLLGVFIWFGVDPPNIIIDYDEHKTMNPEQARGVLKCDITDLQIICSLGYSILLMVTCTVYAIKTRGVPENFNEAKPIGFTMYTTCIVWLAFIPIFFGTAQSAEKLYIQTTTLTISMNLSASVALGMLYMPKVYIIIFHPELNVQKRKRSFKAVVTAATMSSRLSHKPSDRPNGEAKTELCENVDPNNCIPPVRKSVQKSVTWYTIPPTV

Compound	IC50 [nM]
COc1cccc(-c2ccc3nn(-c4ccccn4)c(=O)n3c2)c1 [Compound 1-5, 6-(3-methoxyphenyl)-2-(pyridin-2-yl)-[1,2,4]triazolo[4,3-a]pyridin-3(2H)-one]	100 to 1000
O=c1n(-c2ccccn2)nc2n1CC(c1cccc(OC3CC3)c1)CC2 (stereo not shown) [Compound 1-14, 6-(3-cyclopropoxyphenyl)-2-(pyridin-2-yl)-5,6,7,8-tetrahydro-[1,2,4]triazolo[4,3-a]pyridin-3(2H)-one]	100 to 1000
COc1ccc(C2CCc3nn(-c4ccccn4)c(=O)n3C2)cc1 (stereo not shown) [Compound 1-16, 6-(4-methoxyphenyl)-2-(pyridin-2-yl)-5,6,7,8-tetrahydro-[1,2,4]triazolo[4,3-a]pyridin-3(2H)-one]	1000 to 10000
Cc1ccc(-c2ccc3nn(-c4ccccn4)c(=O)n3c2)c(C)c1 [Compound 1-1, 6-(2,4-dimethylphenyl)-2-(pyridin-2-yl)-[1,2,4]triazolo[4,3-a]pyridin-3(2H)-one]	< 100
COc1cccc(-c2ccc3nn(-c4ccccn4)c(=O)n3c2)c1C [Compound 1-9, 6-(3-methoxy-2-methylphenyl)-2-(pyridin-2-yl)-[1,2,4]triazolo[4,3-a]pyridin-3(2H)-one]	< 100
COc1cccc(C2CCc3nn(-c4ccccn4)c(=O)n3C2)c1C (stereo not shown) [Compound 1-10, 6-(3-methoxy-2-methylphenyl)-2-(pyridin-2-yl)-5,6,7,8-tetrahydro-[1,2,4]triazolo[4,3-a]pyridin-3(2H)-one]	100 to 1000
Cc1ccc(C2CCc3nn(-c4ccccn4)c(=O)n3C2)c(C)c1 (single isomer, unassigned; (+)) [Compound 1-18, (+)6-(2,4-dimethylphenyl)-2-(pyridin-2-yl)-5,6,7,8-tetrahydro-[1,2,4]triazolo[4,3-a]pyridin-3(2H)-one]	< 100
Cc1ccc(C2CCc3nn(-c4ccccn4)c(=O)n3C2)c(C)c1 (stereo not shown) [Compound 1-3, 6-(2,4-dimethylphenyl)-2-(pyridin-2-yl)-5,6,7,8-tetrahydro-[1,2,4]triazolo[4,3-a]pyridin-3(2H)-one]	< 100
Cc1ccc(C2CCc3nn(-c4ccccn4)c(=O)n3C2)c(C)c1 (single isomer, unassigned; (-)) [Compound 1-17, (−)6-(2,4-dimethylphenyl)-2-(pyridin-2-yl)-5,6,7,8-tetrahydro-[1,2,4]triazolo[4,3-a]pyridin-3(2H)-one]	1000 to 10000
Cc1ccc(-c2ccc3nn(-c4ncccn4)c(=O)n3c2)c(C)c1 [Compound 1-2, 6-(2,4-dimethylphenyl)-2-(pyrimidin-2-yl)-[1,2,4]triazolo[4,3-a]pyridin-3(2H)-one]	100 to 1000
COc1cccc(C2CCc3nn(-c4ccccn4)c(=O)n3C2)c1 (stereo not shown) [Compound 1-8, 6-(3-methoxyphenyl)-2-(pyridin-2-yl)-5,6,7,8-tetrahydro-[1,2,4]triazolo[4,3-a]pyridin-3(2H)-one]	1000 to 10000
O=c1n(-c2ncccn2)nc2ccc(-c3cccc(OC4CC4)c3)cn12 [Compound 1-12, 6-(3-cyclopropoxyphenyl)-2-(pyrimidin-2-yl)-[1,2,4]triazolo[4,3-a]pyridin-3(2H)-one]	100 to 1000
COc1ccc(C2CCc3nn(-c4ccccn4)c(=O)n3C2)c(C)c1 (stereo not shown) [Compound 1-22, 6-(4-methoxy-2-methylphenyl)-2-(pyridin-2-yl)-5,6,7,8-tetrahydro-[1,2,4]triazolo[4,3-a]pyridin-3(2H)-one]	100 to 1000
COc1ccccc1-c1ccc2nn(-c3ccccn3)c(=O)n2c1 [Compound 1-19, 6-(2-methoxyphenyl)-2-(pyridin-2-yl)-[1,2,4]triazolo[4,3-a]pyridin-3(2H)-one]	1000 to 10000
COc1ccc(-c2ccc3nn(-c4ccccn4)c(=O)n3c2)c(C)c1 [Compound 1-20, 6-(4-methoxy-2-methylphenyl)-2-(pyridin-2-yl)-[1,2,4]triazolo[4,3-a]pyridin-3(2H)-one]	100 to 1000
COc1ccc(-c2ccc3nn(-c4ccccn4)c(=O)n3c2)cc1 [Compound 1-15, 6-(4-methoxyphenyl)-2-(pyridin-2-yl)-[1,2,4]triazolo[4,3-a]pyridin-3(2H)-one]	1000 to 10000
COc1cccc(-c2ccc3nn(-c4ncccn4)c(=O)n3c2)c1 [Compound 1-7, 6-(3-methoxyphenyl)-2-(pyrimidin-2-yl)-[1,2,4]triazolo[4,3-a]pyridin-3(2H)-one]	1000 to 10000
O=c1n(-c2ccccn2)nc2ccc(-c3cccc(N4CCC4)c3)cn12 [Compound 1-4, 6-(3-(azetidin-1-yl)phenyl)-2-(pyridin-2-yl)-[1,2,4]triazolo[4,3-a]pyridin-3(2H)-one]	100 to 1000
O=c1n(-c2ncccn2)nc2ccc(-c3cccc(N4CCC4)c3)cn12 [Compound 1-6, 6-(3-(azetidin-1-yl)phenyl)-2-(pyrimidin-2-yl)-[1,2,4]triazolo[4,3-a]pyridin-3(2H)-one]	100 to 1000
O=c1n(-c2ccccn2)nc2ccc(-c3cccc(OC4CC4)c3)cn12 [Compound 1-13, 6-(3-cyclopropoxyphenyl)-2-(pyridin-2-yl)-[1,2,4]triazolo[4,3-a]pyridin-3(2H)-one]	100 to 1000
COc1cccc(-c2ccc3nn(-c4ncccn4)c(=O)n3c2)c1C [Compound 1-11, 6-(3-methoxy-2-methylphenyl)-2-(pyrimidin-2-yl)-[1,2,4]triazolo[4,3-a]pyridin-3(2H)-one]	100 to 1000
COc1ccc(-c2ccc3nn(-c4ncccn4)c(=O)n3c2)c(C)c1 [Compound 1-21, 6-(4-methoxy-2-methylphenyl)-2-(pyrimidin-2-yl)-[1,2,4]triazolo[4,3-a]pyridin-3(2H)-one]	1000 to 10000
